Test results published in the supplement of paper PMC10307832.

Compound: CN1CCC(CC1)OC2=CC(=C(C=C2)NC3=NC=C4C(=N3)N(C(=O)N4C)C5CCCC5)OC [AZ3146]
Experiment: relative viability (nuclei count vs DMSO), 5 days (fraction); higher = more cells survive
Settings: 0.08 µM
Procedure, shortened: (§1)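 Lung cancer cell lines in 1536-well plates were exposed by pinning to five library-drug doses (not always all listed) √10 apart, following an overnight hold at 37 °C. MetaXpress counted Hoechst-stained nuclei from 4× images taken after 5 days without medium change. Viability is the median ratio of treated-well to vehicle-well nuclei across plates. Plates required control CV below 25% and at least one doubling.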

In order of falling relative viability:
1. NCI-H2405  1.08
2. NCI-H661  1.02
3. 201T  0.997
4. NCI-H2347  0.997
5. NCI-H1703  0.979
6. IA-LM  0.971
7. NCI-H1355  0.941
8. H3255  0.935
9. NCI-H1993  0.926
10. NCI-H1437  0.887
11. NCI-H1975  0.859
12. NCI-H1563  0.837
13. COR-L 105  0.82

Same assay, conditions: 0.253 µM

In order of rising relative viability:
1. NCI-H1993  0.843
2. NCI-H2405  0.87
3. COR-L 105  0.874
4. NCI-H1395  0.879
5. BEN  0.898
6. NCI-H1703  0.901
7. H3255  0.902
8. NCI-H1437  0.936
9. NCI-H1355  0.971
10. NCI-H1563  0.973
11. NCI-H661  0.988
12. 201T  0.993
13. NCI-H1975  0.993
14. IA-LM  0.998
15. NCI-H2347  1.03

Same assay, conditions: 0.8 µM

In order of rising relative viability:
1. NCI-H1703  0.789
2. NCI-H1395  0.86
3. BEN  0.886
4. NCI-H2347  0.913
5. NCI-H661  0.92
6. COR-L 105  0.939
7. 201T  0.941
8. NCI-H1437  0.953
9. IA-LM  0.987
10. NCI-H2405  0.999
11. NCI-H1993  1
12. NCI-H1355  1
13. H3255  1.01
14. NCI-H1563  1.04
15. NCI-H1975  1.06

Same assay, conditions: 2.53 µM

In order of rising relative viability:
1. NCI-H1703  0.806
2. COR-L 105  0.825
3. NCI-H1563  0.902
4. IA-LM  0.957
5. 201T  0.964
6. NCI-H661  0.98
7. NCI-H1395  0.985
8. BEN  0.989
9. NCI-H1975  1.02
10. NCI-H1993  1.03
11. NCI-H1437  1.03
12. NCI-H1355  1.07
13. H3255  1.09
14. NCI-H2347  1.1
15. NCI-H2405  1.12

Same assay, conditions: 8 µM

In order of rising relative viability:
1. NCI-H1993  0.489
2. COR-L 105  0.504
3. NCI-H1703  0.55
4. IA-LM  0.742
5. NCI-H1975  0.844
6. NCI-H1395  0.85
7. NCI-H1563  0.909
8. BEN  0.943
9. NCI-H1355  0.961
10. H3255  0.981
11. 201T  0.983
12. NCI-H1437  0.983
13. NCI-H661  1.05
14. NCI-H2347  1.07
15. NCI-H2405  1.11

Compound: CCOC(=O)CCNc1cc(N2CCc3ccccc3CC2)nc(-c2ccccn2)n1 [GSK-J4]
Experiment: as above
Settings: 0.5 µM
Procedure, shortened: as §1

In order of falling relative viability:
1. NCI-H1993  1.13
2. NCI-H2405  1.07
3. BEN  1.06
4. NCI-H1395  1.05
5. 201T  1.01
6. NCI-H1437  1.01
7. H3255  0.997
8. NCI-H2347  0.984
9. NCI-H1355  0.979
10. NCI-H1975  0.972
11. NCI-H661  0.969
12. NCI-H1563  0.952
13. NCI-H1703  0.936
14. COR-L 105  0.925
15. IA-LM  0.887

Same assay, conditions: 1.581 µM

In order of falling relative viability:
1. NCI-H1563  1.1
2. NCI-H1993  1.09
3. 201T  0.983
4. NCI-H2405  0.945
5. NCI-H661  0.922
6. NCI-H1355  0.916
7. NCI-H1437  0.909
8. NCI-H1703  0.903
9. NCI-H1395  0.893
10. NCI-H2347  0.879
11. H3255  0.869
12. BEN  0.864
13. COR-L 105  0.864
14. NCI-H1975  0.857
15. IA-LM  0.84

Same assay, conditions: 5 µM

In order of falling relative viability:
1. IA-LM  1.17
2. NCI-H1993  1.08
3. 201T  0.928
4. NCI-H1437  0.923
5. H3255  0.91
6. NCI-H661  0.904
7. NCI-H1563  0.892
8. NCI-H2347  0.886
9. NCI-H1395  0.827
10. NCI-H1355  0.821
11. NCI-H1703  0.815
12. COR-L 105  0.795

Same assay, conditions: 15.81 µM

In order of falling relative viability:
1. NCI-H1437  1.01
2. NCI-H1395  0.964
3. NCI-H1975  0.953
4. NCI-H2347  0.952
5. COR-L 105  0.949
6. 201T  0.947
7. NCI-H2405  0.943
8. NCI-H661  0.927
9. NCI-H1355  0.902
10. NCI-H1563  0.894
11. BEN  0.876
12. IA-LM  0.821
13. H3255  0.811
14. NCI-H1703  0.781
15. NCI-H1993  0.756

Same assay, conditions: 50 µM

In order of rising relative viability:
1. IA-LM  0.315
2. NCI-H1993  0.533
3. NCI-H1437  0.609
4. NCI-H661  0.723
5. BEN  0.788
6. NCI-H1703  0.804
7. NCI-H1395  0.81
8. NCI-H2347  0.849
9. H3255  0.854
10. COR-L 105  0.861
11. 201T  0.943
12. NCI-H1355  0.943
13. NCI-H1563  0.985
14. NCI-H2405  0.987
15. NCI-H1975  1.09
